Experimental data: article PMC7281206, “Cysteine Cathepsins Inhibition Affects Their Expression and Human Renal Cancer Cell Phenotype” (Cancers, 2020)
*: point of attachment. CH2F = FC*

Tests used:
[1] = test system: 769-P cells (endolysosomal compartment); experiment: Neutral red assay (endolysosomal integrity), 769-P; type: cell-based, human; conditions: 2.5–250 μM; 48 h
Description: (§1) Figure S6. The effect of the peptide inhibitors on human 769‐P and A498 renal cancer cell on
(§2) lysosomes integrity. (a) 769‐P and (b) A498 cells were treated with increasing doses of Ac‐PLVE‐FMK
(§3) (red bars) and Ac‐VLPE‐FMK (blue bars) (2.5–250 μM). NR uptake was measured after 24, 48, and 72
(§4) h via MTT assay. (c) LysoTracker red evaluation in 769‐P and (d) A498 cells after 24, 48, and 72 h with
(§5) the inhibitors (20 μM). Data represent the mean (± S.D.) of at least three independent experiments,
each performed in triplicate.

Dispersibility in water = type: physicochemical
[2] = test system: A498 cells (endolysosomal compartment); experiment: LysoTracker red fluorescence, A498; type: cell-based, human; conditions: 20 μM; 48 h; 75 nM LysoTracker red, 1 h, Ex/Em 570/600
Description: First, 1.5 × 10^4 769-P or A498 cells were seeded in 96-well plates in full medium. The day after the cells were treated with the peptides for 3 consecutive days to establish 24, 48, and 72 h groups of treatment. LysoTracker Red fluorescence intensity was measured via microplate reader following the protocols described in [75] and applying Ex/Em = 570/600. The cells were incubated with 75 nM of LysoTracker red for 1 h. […]
as §1, §2, §3, §4, §5
each performed in triplicate. […]

[3] = test system: E-cadherin in 769-P cells; experiment: E-cadherin protein expression (western blot), 769-P; type: cell-based, human
Description: These properties could be the result of the modulation of the effectors controlling EMT, as previously shown in other tumor models. To test this hypothesis, the cells were treated with the inhibitors for 24, 48, and 72 h by changing the media every day, and they were tested for E-cadherin and SNAIL1 expression (Figure 6; detail information of western blots can be seen in Supplementary Figure S7).  Figure 6 Effects of the peptides on E-cadherin and SNAIL1 protein expression: (a,b) protein expression of E-cadherin and SNAIL1 in 769-P and (c,d) A498 cells after 24, 48, and 72 h of treatment with the peptides. Data are represented as mean ± SD of at least three replicates. Significance was calculated through one-way ANOVA, followed by Dunnet’s test. Cells were seeded in RPMI containing 10% FBS and cultured for 24 h. Next, 30 µM of inhibitors were added to the culture medium and incubated for 24, 48, and 72 h. Control cells were treated with 0.01% DMSO. At all time points the samples were lysed in 50 mM Tri-HCl (pH 8.0), 100 mM NaCl, 0.5% NP-40, 1% Triton X-100, 1× protease inhibitor cocktail (ThermoFisher, Waltham, MA, USA). The 50 µg of protein lysates were separated by electrophoresis on a 12% SDS-PAGE gel and transferred to the PFDF membranes. The expression of cysteine Cts, LAMP-1, E-cadherin, and SNAIL1 were identified by a reaction with specific primary antibodies (CtsB-Ab190077, Abcam, UK; CtsL-Ab95154, Abcam, UK; CtsW Ab191083; LAMP-1- Ab24170, Abcam, UK; SNAIL1 Ab216347, Abcam, UK and e-cadherin-612131, BD Sciences Franklin Lakes, NJ, USA) which were resuspended in 5% non-fat milk in PBST (all Cts 1:3000, LAMP-1, SNAIL1 and E-cadherin 1:1000) and incubated O/N. The next day, the membranes were washed three times with PBST and incubated for 1 h with secondary antibodies (P-GAR Iss (Goat pAb to rabbit IgG (HRP), Abcam, UK or Rabbit Ab to mouse, Abcam, UK; both 1:5000) in 5% non-fat milk in PBST. After an additional wash (three times with PBS), reactive bands were detected by chemiluminescence (Bio-Rad, Irvine, CA, USA). As a loading control, the membranes were incubated with a polyclonal anti-tubulin antibody (1:5000; Ab52866, Abcam, UK) identically.

A498 cells = experiment: Cell viability/proliferation (MTT), A498; type: cell-based, human; conditions: 2.5–250 μM; for Cell viability: 72 h; for Effect on cell proliferation: within 48 h
Description: Figure 3 The effect of the peptide inhibitors on human 769-P and A498 renal cancer cell proliferation and proteolytic activity. (a) 769-P and (b) A498 cells were treated with increasing doses of Ac-PLVE-FMK (red bars) and Ac-VLPE-FMK (blue bars) (2.5–250 μM). Cell proliferation was measured after 24, 48, and 72 h via MTT (3-(4,5-dimethylthiazol-2-yl)-2,5-diphenyltetrazolium bromide) assay. Data represent the mean (±S.D.) of at least three independent experiments, each performed in triplicate. (c) Fluorescence microscopy evaluation and quantification of the cell proteolytic activity in 769-P and (d) A498 cells towards the fluorogenic substrate Ac-PLVQ-AMC in the absence or presence of Ac-PLVE-FMK and Ac-VLPE-FMK. The cells were seeded in a 96-well plate and after exposure to the peptides for 30 min prior incubation with the fluorescent substrate Ac-PLVQ-AMC for 10 min. Data are expressed as mean (±S.D.), and significance was calculated through one-way ANOVA followed by Dunnet’s test. * = p < 0.05, ** = p < 0.01, *** = p < 0.001.
The human renal cancer cell line lines […], A498 were obtained from Dr. Vadim Pokrovsky (purchased from American Type Culture Collection). The cells were cultured in RPMI 1640, supplemented with 10% fetal bovine serum and 1% mixture of antibiotics penicillin-streptomycin (all from Gibco, Waltham, MA, USA) at 5% CO2 and 37 °C in a humidified chamber. Cells were grown to confluence and harvested by trypsinization, using a 0.25 mg/mL trypsin/EDTA solution (ThermoFisher, Carlsbad, CA, USA) and resuspended in the fresh culture medium. Viable cells were enumerated on the Countess II FL Automated Cell Counter (ThermoFisher, Waltham, MA, USA), following Trypan Blue staining. The cell lines were tested for mycoplasma contamination regularly, using the Molecular Probes™ MycoFluor Mycoplasma Detection Kit (ThermoFisher, Waltham, MA, USA).
The cell number was evaluated by counting viable cells using the MTT (3-(4,5-dimethylthiazol-2-yl)-2,5-diphenyltetrazolium bromide) colorimetric assay. A total of 2 × 10^4 cells/well were seeded on independent 96-well plates for each time point (0, 24, 48, and 72 h), with five replicates and treated with two inhibitors (2.5–250 μM). Then, 10 µL of the MTT reagent was added to each well, and cells were incubated for another 5 h. Next, the absorbance value was measured using a CLARIOstar® Plus plate reader (BMG Labtech, Ortenberg, Germany) at 490 nm. Triplicate wells were assayed, and S.D.s were determined.

SNAIL1 in 769-P cells = experiment: SNAIL1 protein expression (western blot), 769-P; type: cell-based, human; conditions: 72 h
Description: (§6) These properties could be the result of the modulation of the effectors controlling EMT, as previously shown in other tumor models. To test this hypothesis, the cells were treated with the inhibitors for 24, 48, and 72 h by changing the media every day, and they were tested for E-cadherin and SNAIL1 expression (Figure 6; detail information of western blots can be seen in Supplementary Figure S7). Figure 6 Effects of the peptides on E-cadherin and SNAIL1 protein expression: (a,b) protein expression of E-cadherin and SNAIL1 in 769-P and (c,d) A498 cells after 24, 48, and 72 h of treatment with the peptides. Data are represented as mean ± SD of at least three replicates. Significance was calculated through one-way ANOVA, followed by Dunnet’s test. Cells were seeded in RPMI containing 10% FBS and cultured for 24 h. Next, 30 µM of inhibitors were added to the culture medium and incubated for 24, 48, and 72 h. Control cells were treated with 0.01% DMSO. At all time points the samples were lysed in 50 mM Tri-HCl (pH 8.0), 100 mM NaCl, 0.5% NP-40, 1% Triton X-100, 1× protease inhibitor cocktail (ThermoFisher, Waltham, MA, USA). The 50 µg of protein lysates were separated by electrophoresis on a 12% SDS-PAGE gel and transferred to the PFDF membranes. […] After an additional wash (three times with PBS), reactive bands were detected by chemiluminescence (Bio-Rad, Irvine, CA, USA). […]

SNAIL1 in A498 cells = experiment: SNAIL1 protein expression (western blot), A498; type: cell-based, human; conditions: 72 h
Description: as §6

Row | Substance | Neutral red uptake [1] | Dispersibility in water (Dispersibility in water) | LysoTracker red fluorescence [2] | E-cadherin protein expression ([3]; 72 h) | E-cadherin protein expression ([3]; first 48 h) | Cell viability (A498 cells) | Effect on cell proliferation (A498 cells) | SNAIL1 protein expression (SNAIL1 in 769-P cells) | SNAIL1 protein expression (SNAIL1 in A498 cells)
1 | Ac-PLVE-CH2F [Ac-PLVE-FMK] | slightly increasing | easily dispersed in water | decreasing | further increased in 769P cells | increased the protein expression of E-cadherin in the first 48 h in both the cell lines | cell viability increased, reaching values not significantly different from the control cells | cytostatic properties on both cell lines only within 48 h of treatment | increased significantly at 72 h only in the case of 769P cells treated with AC-PLVE-FMK | dropped to values more similar to the control
2 | Ac-VLPE-CH2F [Ac-VLPE-FMK] | slightly increasing | easily dispersed in water | decreasing | further increased in 769P cells | increased the protein expression of E-cadherin in the first 48 h in both the cell lines | cell viability increased, reaching values not significantly different from the control cells | cytostatic properties on both cell lines only within 48 h of treatment | dropped to values more similar to the control | dropped to values more similar to the control
